Results reported in patent publication US7081467B2, “C2-disubstituted indan-1-ones and their derivatives, processes for their preparation and their use as pharmaceuticals” (Sanofi-aventis Deutschland GmbH, priority 2001, dated 2006).

Columns and labels:
female NMRI mice = test: Anorectic action: cumulative milk consumption after 24 h feed removal; format: in vivo; conditions: feed removed 24 h, dose 20 mg/kg (ip or po, route not specified)
Protocol: The anorectic action was tested on female NMRI mice. After removal of feed for 24 hours, the preparation to be tested was administered intraperitoneally (ip) or by gavage (po). The animals were housed singly and, with free access to drinking water, they were offered evaporated milk 30 minutes after administration of the preparation. The consumption of evaporated milk was determined and the general behavior of the animals was monitored every half an hour for 7 hours. The measured milk consumption was compared to that of vehicle-treated control animals.

melting point: 150 °C
Compound: CS(=O)(=O)C1(F)Cc2cc(Cl)ccc2C1=O (stereo not drawn) [Example 1, 5-Chloro-2-fluoro-2-methanesulfonylindan-1-one]
Reduction in cumulative milk consumption as % of the control (female NMRI mice; compared with vehicle-treated control animals): 48%
cumulative milk consumption by treated animals (female NMRI mice; evaporated milk offered 30 min after administration, monitored for 7 hours): 5/2.00 ml
